We go through 1 compound from patent publication US20220144847A1, “HETEROCYCLIC COMPOUND, PHARMACEUTICAL COMPOSITION COMPRISING SAME, PREPARATION METHOD THEREFOR, AND USE THEREOF” (Sichuan Kelun-Biotech Biopharmaceutical Co., Ltd., priority 2019, published 2022).

Like-named read-outs stand apart in the source and are kept apart here.

The target in one data set is RET-V804L (Homo sapiens, UniProt P07949, V804L). In words: RET inhibition experiment (HTRF KinEASE-TK kit), mutant RET-V804L. It is filed as biochemical. The following applies: read-out: The IC50 (nM) for inhibiting RET-V804L. As for the experimental part: (§1) Experimental method: […] After incubation at room temperature for 40 min, TK antibody-cryptate and streptavidin-XL665 were added, and the test was performed after incubation at room temperature for 45 min. With the solvent group (DMSO) as the negative control and the buffer group (without RET enzyme) as the blank control, the relative inhibitory activity percentages (i.e., inhibition rates) of different concentrations of the compounds were computed as per the following formula: […] The relative inhibitory activity percentages of different concentrations of the compounds were plotted with respect to the compound concentrations, and the curve was fitted according to a four-parameter model to compute the IC50 value as per the following formula: y=min+(max-min)/(1+(x/IC50)^(-Hillslope)) where y is the relative inhibitory activity percentage, max is the maximum value of the fitted curve, min is the minimum value of the fitted curve, x is the logarithmic concentration of the compound, and Hillslope is the slope of the curve.

A further data set has as its target RET-WT (Homo sapiens, UniProt P07949). Description: RET inhibition experiment (HTRF KinEASE-TK kit), wild-type RET enzyme. The following applies: read-out: The IC50 (nM) for inhibiting RET-WT. It is filed as biochemical. As for the experimental part: as §1
Another data set concerns the target RET-M918T (Homo sapiens, UniProt P07949, M918T). Description: RET inhibition experiment (HTRF KinEASE-TK kit), mutant RET-M918T. The settings on record: read-out: The IC50 (nM) for inhibiting the enzyme RET-M918T. It is filed as biochemical. How it is done: as §1
(In general: Time-resolved FRET reads energy transfer from a long-lived donor to a nearby acceptor.)

Data set [1] can be described thus: Pharmacokinetics and tissue distribution of compounds in rats. It is filed as in vivo. The following applies: male, SD, rat, PO 5 mg/kg; for AUC(0-t): read-out: AUC AUClast; for Cmax: read-out: Peak concentration Cmax; for Kp: read-out: T/P Ratio of AUClast in tissue to plasma; for Tmax: read-out: Time to peak concentration Tmax. As for the experimental part:
By intragastric administration (PO) of BLU-667 (prepared according to Example 5 of WO2017/079140A1) and Compound 17 to male SD rats respectively, the plasma concentrations and the tissue concentrations of BLU-667 and Compound 17 in brains, lungs and thyroid of rats were determined to investigate the pharmacokinetic characteristics. The dosage of administration by PO was 5 mg/kg, and the solvent was 0.5% MC (methylcellulose). With administration by PO, blood samples were collected at different time points (0 h before administration, and 0.25 h, 0.5 h, 1 h, 2 h, 4 h, 6 h, 8 h, and 24 h after administration). The blood samples were anticoagulated with dipotassium edetate, and centrifuged to provide plasma samples, which were stored at −80° C. Rats were sacrificed by exsanguination from abdominal aorta at 0.5 h, 2 h, 8 h, and 24 h after PO administration. Brain, lung and thyroid were collected, washed, and homogenized with normal saline at a certain ratio, to provide tissue samples which were stored at −80° C. The plasma samples and tissue samples were processed with precipitated protein and then analyzed by LC-MS/MS. The pharmacokinetic parameters were computed using WinNonlin 6.3 software and using a non-compartmental model.

In a further data set the target is VEGFR2 (Homo sapiens, UniProt P35968). Description: VEGFR2 inhibition experiment (HTRF KinEASE-TK kit). The settings on record: read-out: IC50 for inhibiting VEGFR2. It is filed as biochemical. The procedure, abridged:
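HTRF KinEASE-TK format: enzyme and compound were preincubated 30 min at room temperature, then substrate and ATP added for 40 min, followed by cryptate antibody/streptavidin-XL665 detection for 45 min. Inhibition was normalised to DMSO and no-enzyme controls; IC50 from a four-parameter fit.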

Data set [2] concerns human medullary thyroid carcinoma TT cells. Description: Efficacy test in mice, subcutaneous xenograft tumor of TT cells. It is filed as in vivo, Balb/c-nu mouse. The settings on record: 5 mg/kg, PO, BID; TT nude mouse xenograft. How it is done:
Experimental purpose: To evaluate the in vivo efficacy of Compound 17 and BLU-667 in a Balb/c-nu mouse model with a subcutaneous xenograft tumor of human medullary thyroid carcinoma TT cells.
Drug preparation: Compound 17 was dissolved in 0.1 M aqueous solution of H3PO4, and BLU-667 was dissolved in 0.1 M aqueous solution of HOAc, to prepare clear solutions (pH: about 4.0). An aqueous solution of H3PO4 at a pH of about 4.0 was used for the solvent control group. The mode of administration was PO, BID.
Tumor measurement: The tumor diameter was measured with a vernier caliper twice a week. The computing formula of the tumor volume is: V=0.5×a×b^2, where a represents a long diameter of the tumor, and b represents a short diameter of the tumor. Evaluation of tumor growth inhibition rate (TGI (%)) for tumor inhibition efficacy of the compounds: TGI (%)=[(1-(mean tumor volume of a treatment group at the end of drug administration-mean tumor volume of the treatment group at the commencement of drug administration))/(mean tumor volume of a solvent control group at the end of treatment-mean tumor volume of the solvent control group at the commencement of treatment)]×100%.
Statistical analysis: Prism Graphpad5.0 software was used for statistical analysis based on the relative tumor volume at the end of the experiment. The comparison between multiple groups was analyzed by two-way ANOVA, and p<0.05 was considered as a significant difference.
Experimental results: In the TT nude mouse xenograft model of human medullary thyroid carcinoma, Compound 17 has a significant […] anti-tumor effect at a dose of 5 mg/kg. […] Relative tumor growth rate T/C (%)=TRTV/CRTV×100%, where TRTV is the mean relative tumor volume of the test compound group, CRTV is the relative tumor volume of the solvent control group; and the relative tumor volume RTV=Vt/V0, where V0 is the mean tumor volume at the commencement of the administration, and Vt is the mean tumor volume measured on day t after the administration.

Sequence of RET-WT (P07949 29-1114): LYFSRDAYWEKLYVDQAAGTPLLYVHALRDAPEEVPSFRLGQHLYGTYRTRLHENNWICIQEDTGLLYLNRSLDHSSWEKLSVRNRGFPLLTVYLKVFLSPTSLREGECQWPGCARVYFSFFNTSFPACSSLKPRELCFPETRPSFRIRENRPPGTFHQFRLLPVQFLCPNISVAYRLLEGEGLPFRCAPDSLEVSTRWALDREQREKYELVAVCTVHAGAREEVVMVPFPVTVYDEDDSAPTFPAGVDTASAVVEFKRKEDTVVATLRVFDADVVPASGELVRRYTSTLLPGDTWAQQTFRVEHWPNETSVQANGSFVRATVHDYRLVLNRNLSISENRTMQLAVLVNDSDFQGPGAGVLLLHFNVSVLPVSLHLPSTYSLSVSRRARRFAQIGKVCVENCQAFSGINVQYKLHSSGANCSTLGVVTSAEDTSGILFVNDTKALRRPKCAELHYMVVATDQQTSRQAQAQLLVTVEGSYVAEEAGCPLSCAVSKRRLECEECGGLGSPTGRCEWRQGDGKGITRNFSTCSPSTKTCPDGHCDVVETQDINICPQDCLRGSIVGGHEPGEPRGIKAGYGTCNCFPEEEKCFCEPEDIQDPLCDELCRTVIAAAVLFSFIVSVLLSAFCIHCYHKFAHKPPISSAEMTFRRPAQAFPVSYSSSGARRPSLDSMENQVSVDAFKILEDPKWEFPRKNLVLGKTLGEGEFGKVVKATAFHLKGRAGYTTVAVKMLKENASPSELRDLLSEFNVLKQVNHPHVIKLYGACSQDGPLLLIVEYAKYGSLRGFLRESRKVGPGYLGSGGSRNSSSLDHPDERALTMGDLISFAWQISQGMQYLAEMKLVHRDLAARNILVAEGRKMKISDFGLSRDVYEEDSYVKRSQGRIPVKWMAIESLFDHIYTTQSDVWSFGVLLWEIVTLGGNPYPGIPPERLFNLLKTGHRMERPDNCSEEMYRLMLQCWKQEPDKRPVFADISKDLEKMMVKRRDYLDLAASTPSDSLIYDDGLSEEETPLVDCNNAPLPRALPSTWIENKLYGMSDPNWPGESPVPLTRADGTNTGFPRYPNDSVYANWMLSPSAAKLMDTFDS
Sequence of RET-V804L (P07949 29-1114 V804L): as the sequence (P07949 29-1114) above, with V776L counted along it
Sequence of RET-M918T (P07949 29-1114 M918T): as the sequence (P07949 29-1114) above, with M890T counted along it
Sequence of VEGFR2 (P35968 20-1356, species assumed): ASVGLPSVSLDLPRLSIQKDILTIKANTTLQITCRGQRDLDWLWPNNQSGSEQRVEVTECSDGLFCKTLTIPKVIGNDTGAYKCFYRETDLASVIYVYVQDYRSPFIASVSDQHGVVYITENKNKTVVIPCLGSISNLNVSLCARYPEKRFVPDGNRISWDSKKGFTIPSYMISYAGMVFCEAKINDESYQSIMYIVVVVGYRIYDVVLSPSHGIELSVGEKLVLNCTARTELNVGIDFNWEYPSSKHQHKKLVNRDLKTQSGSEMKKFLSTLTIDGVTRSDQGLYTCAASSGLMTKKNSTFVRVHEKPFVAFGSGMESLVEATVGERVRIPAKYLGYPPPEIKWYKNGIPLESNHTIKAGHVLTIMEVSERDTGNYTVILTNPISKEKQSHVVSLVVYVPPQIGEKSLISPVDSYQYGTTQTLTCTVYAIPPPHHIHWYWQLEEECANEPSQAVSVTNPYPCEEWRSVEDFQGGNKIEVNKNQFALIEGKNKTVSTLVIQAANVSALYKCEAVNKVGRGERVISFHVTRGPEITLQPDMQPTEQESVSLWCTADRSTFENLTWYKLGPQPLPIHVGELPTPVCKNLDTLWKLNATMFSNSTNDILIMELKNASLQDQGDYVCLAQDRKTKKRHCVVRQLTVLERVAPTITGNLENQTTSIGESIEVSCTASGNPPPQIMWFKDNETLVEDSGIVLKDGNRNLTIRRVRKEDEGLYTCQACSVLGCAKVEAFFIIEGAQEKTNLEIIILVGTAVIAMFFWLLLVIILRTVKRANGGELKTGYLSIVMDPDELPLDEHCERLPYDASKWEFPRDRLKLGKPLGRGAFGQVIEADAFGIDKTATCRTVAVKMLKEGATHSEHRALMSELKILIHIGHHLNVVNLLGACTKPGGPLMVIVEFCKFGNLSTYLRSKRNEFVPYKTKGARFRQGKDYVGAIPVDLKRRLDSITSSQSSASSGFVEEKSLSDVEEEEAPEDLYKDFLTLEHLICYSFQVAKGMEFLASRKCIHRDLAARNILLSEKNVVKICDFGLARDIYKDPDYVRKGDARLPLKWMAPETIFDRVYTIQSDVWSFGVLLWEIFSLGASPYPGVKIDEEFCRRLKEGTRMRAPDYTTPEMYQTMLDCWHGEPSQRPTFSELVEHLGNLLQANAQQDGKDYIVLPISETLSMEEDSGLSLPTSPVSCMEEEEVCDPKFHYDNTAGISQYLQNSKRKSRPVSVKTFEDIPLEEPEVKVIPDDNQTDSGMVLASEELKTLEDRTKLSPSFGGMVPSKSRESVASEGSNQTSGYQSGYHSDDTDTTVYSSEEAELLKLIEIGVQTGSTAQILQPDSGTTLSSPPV

For `Cc1cc(Nc2cc(C)[nH]n2)nc(-c2ccc(N3CC4CC(C3)N4Cc3ccc(-n4cc(F)cn4)nc3)nc2)n1` [Compound 17, 2-(6-(6-((6-(4-fluoro-1H-pyrazol-1-yl)pyridin-3-yl)methyl)-3,6-diazabicyclo[3.1.1]heptan-3-yl)pyridin-3-yl)-6-methyl-N-(5-methyl-1H-pyrazol-3-yl)pyrimidin-4-amine], the IC50 (in general, the concentration needed to halve the response being measured) is 6.54 ± 2.43 nM at RET-V804L, 1.32 ± 0.31 nM at RET-WT, 1.47 ± 0.29 nM at RET-M918T and 63 ± 11.8 nM at VEGFR2. Besides, the AUC(0-t) in data set [1] (brain) was determined as 1010 ng·h/mL; in data set [1] (lung), 79600 ng·h/mL; in data set [1] (plasma), 6790 ng·h/mL; in data set [1] (thyroid), 11400 ng·h/mL. The Cmax in data set [1] (brain) amounted to 153 ng/mL; in data set [1] (lung), 9620 ng/mL; in data set [1] (plasma) it was 772 ng/mL; in data set [1] (thyroid), 1870 ng/mL. The Kp in data set [1] (brain) stood at 0.15; in data set [1] (lung), 11.7; in data set [1] (plasma), 1; in data set [1] (thyroid), 1.68. Further, the Tmax in data set [1] (brain) turned out to be 2 h; in data set [1] (lung), 2 h; in data set [1] (plasma), 2 h; in data set [1] (thyroid) it was 8.49 h. Besides, the “Relative tumor growth rate T/C” value in data set [2] is on record as 17.44%. In addition, the “Tumor growth inhibition rate TGI” value in data set [2] is on record as 131.36%.
